Where two headings read alike, the source gives them in different places.
Experiments:
hCA I = hCA I (Homo sapiens, UniProt P00915); test: CA inhibition, CO2 hydration method, isozyme I; assay type: biochemical
hCA IX = hCA IX (Homo sapiens, UniProt Q16790); test: CA inhibition, CO2 hydration method, isozyme IX (catalytic domain); assay type: biochemical
hCA II = hCA II (Homo sapiens, UniProt P00918); test: CA inhibition, CO2 hydration method, isozyme II; assay type: biochemical; settings: for Ki: human cloned isozyme, CO2 hydration method; for hCA II inhibitors, ranking in the series: discussion of Table 1
human red cells [1] = test: Ex vivo penetration through red blood cell membranes; settings: for [sulfonamide] in red blood cells, t = 30 min, HPLC / [sulfonamide] in red blood cells, t = 30 min, ES / [sulfonamide] in red blood cells, t = 60 min, HPLC / [sulfonamide] in red blood cells, t = 60 min, ES / [sulfonamide] in red blood cells, t = 48 h, HPLC / [sulfonamide] in red blood cells, t = 48 h, ES: 3 mM sulfonamide in 5 mM Tris buffer pH 7.4; for [sulfonamide] in red blood cells, t = 30 min, HPLC / [sulfonamide] in red blood cells, t = 60 min, HPLC / [sulfonamide] in red blood cells, t = 48 h, HPLC: HPLC method; for [sulfonamide] in red blood cells, t = 30 min, ES / [sulfonamide] in red blood cells, t = 60 min, ES / [sulfonamide] in red blood cells, t = 48 h, ES: electronic spectroscopy; for membrane permeability at exposure times of 30-60 min / membrane permeability after 48 hours of exposure: human RBCs, pH 7.4
MDCK-CA IX cells = test: Binding of fluorescent sulfonamide to MDCK-CA IX cells (fluorescence microscopy); assay type: cell-based, canine; settings: CA IX-positive and mock-transfected MDCK cells, normoxia or hypoxia 48 h
Description: (§1) Sulfonamide treatment of cells. […] Images were acquired by Nikon Coolpix 990.

[2] = system: SiHa cervical carcinoma cells; test: Binding of fluorescent sulfonamide to SiHa cells; settings: hypoxic versus normoxic cells
Protocol: (§2) Sulfonamide treatment of cells. The sulfonamides were dissolved in PBS with 20% DMSO at 100 mM concentration and diluted in a culture medium to a required final concentration just before their addition to cells. Immediately after beginning of the treatment with sulfonamides, the cells were transferred to hypoxia and incubated for 48 h. Parallel cultures were maintained for the same time period in normoxia.

[3] = system: SiHa cervical carcinoma cells; test: Effect on extracellular pH of SiHa cells in hypoxia; assay type: cell-based; settings: hypoxia 48 h, 1 mM
[4] = system: HeLa cervical carcinoma cells; test: Binding of fluorescent sulfonamide to HeLa cells; settings: hypoxic versus normoxic cells
Protocol: as §2

[5] = system: HeLa cervical carcinoma cells; test: Effect on extracellular pH of HeLa cells in hypoxia; assay type: cell-based; settings: hypoxia 48 h, 1 mM
Protocol: Cell cultures. MDCK and HeLa cells as well as their transfected derivatives were grown in DMEM with 10% FCS (BioWhittaker, Verviers, Belgium) buffered with 22.4 mM bicarbonate and containing supplements as described before (Svastova, E.; et al.; Exp. Cell. Res. 2003, 290, 332-345) To maintain standard experimental conditions, the cells were always plated in 3 ml of culture medium at a density of 0.8−1×10^6 per 6 cm dish 24 h before the transfer to hypoxia (2% O2 and 5% CO2 balanced with N2) generated in a Napco 7000 incubator, where they were grown for additional 48 h (if not stated otherwise). Parallel normoxic dishes were incubated in air with 5% CO2.
as §1
Mean differences in the pH values determined in the treated versus control dishes are shown on the histogram with indicated standard deviations. The experiment was repeated three times using at least three parallel dishes for each sample.

human red cells [6] = system: human red cells
hCA XII = hCA XII (Homo sapiens, UniProt O43570); test: CA inhibition, CO2 hydration method, isozyme XII (catalytic domain); assay type: biochemical; settings: Table 2, catalytic domain of human cloned isozyme
[7] = Table 1, human cloned isozyme, read-out: KI hCA I
[8] = Table 1, catalytic domain of human cloned isozyme
[9] = Table 2, human cloned isozyme, read-out: KI hCA I
[10] = Table 2, catalytic domain of human cloned isozyme

Sequence of hCA XII (O43570 30-289 limits assumed): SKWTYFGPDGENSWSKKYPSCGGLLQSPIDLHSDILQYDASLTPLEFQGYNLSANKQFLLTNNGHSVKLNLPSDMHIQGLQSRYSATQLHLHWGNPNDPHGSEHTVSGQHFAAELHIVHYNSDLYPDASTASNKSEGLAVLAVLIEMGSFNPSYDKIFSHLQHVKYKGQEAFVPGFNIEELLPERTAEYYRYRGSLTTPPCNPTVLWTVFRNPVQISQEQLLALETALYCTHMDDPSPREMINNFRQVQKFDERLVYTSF
Sequence of hCA I (P00915 whole entry, the tested form may be a part): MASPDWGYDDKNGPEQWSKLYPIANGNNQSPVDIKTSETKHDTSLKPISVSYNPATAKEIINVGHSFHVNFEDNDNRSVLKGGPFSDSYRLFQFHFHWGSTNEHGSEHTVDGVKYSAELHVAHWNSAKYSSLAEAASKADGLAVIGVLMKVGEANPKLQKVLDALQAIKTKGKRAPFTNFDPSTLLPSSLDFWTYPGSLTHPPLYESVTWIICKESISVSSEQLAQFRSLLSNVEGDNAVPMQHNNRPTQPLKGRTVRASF

| Ki (hCA I; [7]) | Ki (hCA IX; [8]) | Ki (hCA II; Table 1) | Ki (hCA I; [9]) | Ki (hCA XII) | Ki (hCA IX; [10]) | Ki (hCA II; Table 2) | SMILES | other results |
| --- | --- | --- | --- | --- | --- | --- | --- | --- |
| 1500 nM | 29 nM | 41 nM | – | – | – | – | NS(=O)(=O)c1ccc(NC(=S)Nc2ccc(-c3c4ccc(=O)cc-4oc4cc(O)ccc34)c(C(=O)O)c2)cc1 [5a, (4-Sulfamoylphenyl)thioureido fluorescein] | – |
| 1450 nM | 26 nM | – | – | – | – | – | NS(=O)(=O)c1ccc(CNC(=S)Nc2ccc(-c3c4ccc(=O)cc-4oc4cc(O)ccc34)c(C(=O)O)c2)cc1 [5b, (4-sulfamoylphenylmethyl)thioureido fluorescein] | [sulfonamide] in red blood cells, t = 30 min, HPLC (human red cells [1]): 0.5 µM; [sulfonamide] in red blood cells, t = 30 min, ES (human red cells [1]): 0.8 µM; [sulfonamide] in red blood cells, t = 60 min, HPLC (human red cells [1]): 0.8 µM; [sulfonamide] in red blood cells, t = 60 min, ES (human red cells [1]): 0.8 µM; [sulfonamide] in red blood cells, t = 48 h, HPLC (human red cells [1]): 10.1 µM; [sulfonamide] in red blood cells, t = 48 h, ES (human red cells [1]): 2.5 µM; membrane permeability at exposure times of 30-60 min (human red cells [1]): decreased membrane permeability; membrane permeability after 48 hours of exposure (human red cells [1]): slightly more permeant |
| 1200 nM | 25 nM | 40 nM | – | – | – | – | NS(=O)(=O)c1ccc(NNC(=S)Nc2ccc(-c3c4ccc(=O)cc-4oc4cc(O)ccc34)c(C(=O)O)c2)cc1 [5d] | – |
| 980 nM | 30 nM | – | – | – | – | – | NS(=O)(=O)c1ccc(NC(=S)Nc2ccc(-c3c4ccc(=O)cc-4oc4cc(O)ccc34)c(C(=O)O)c2)c(F)c1 [5e] | – |
| 950 nM | 32 nM | 52 nM | – | – | – | – | NS(=O)(=O)c1ccc(NC(=S)Nc2ccc(-c3c4ccc(=O)cc-4oc4cc(O)ccc34)c(C(=O)O)c2)c(Cl)c1 [5f] | – |
| 1100 nM | 35 nM | 43 nM | – | – | – | – | NS(=O)(=O)c1ccc(NC(=S)Nc2ccc(-c3c4ccc(=O)cc-4oc4cc(O)ccc34)c(C(=O)O)c2)c(Br)c1 [5g] | – |
| 1070 nM | 31 nM | 40 nM | – | – | – | – | NS(=O)(=O)c1ccc(NC(=S)Nc2ccc(-c3c4ccc(=O)cc-4oc4cc(O)ccc34)c(C(=O)O)c2)c(I)c1 [5h, (2-Iodo-4-sulfamoylphenyl)thioureido fluorescein] | – |
| 1400 nM | 34 nM | 52 nM | – | – | – | – | NS(=O)(=O)c1cccc(NC(=S)Nc2ccc(-c3c4ccc(=O)cc-4oc4cc(O)ccc34)c(C(=O)O)c2)c1 [5i, (3-Sulfamoylphenyl)thioureido fluorescein] | – |
| 630 nM | 20 nM | 34 nM | – | – | – | – | NS(=O)(=O)c1ccc(CNS(=O)(=O)c2ccc(NC(=S)Nc3ccc(-c4c5ccc(=O)cc-5oc5cc(O)ccc45)c(C(=O)O)c3)cc2)cc1 [5j] | hCA II inhibitors, ranking in the series (hCA II): best hCA II inhibitors in this series |
| 480 nM | 16 nM | 27 nM | – | – | – | – | NS(=O)(=O)c1nnc(NS(=O)(=O)c2ccc(NC(=S)Nc3ccc(-c4c5ccc(=O)cc-5oc5cc(O)ccc45)c(C(=O)O)c3)cc2)s1 [5k, [4-(5-Sulfamoyl-[1,3,4]thiadiazol-2-ylsulfamoyl)-phenyl]-thioureido fluorescein] | hCA II inhibitors, ranking in the series (hCA II): best hCA II inhibitors in this series |

More lines, now with the values behind:

| SMILES | Ki (hCA I; [7]) | Ki (hCA IX; [8]) | Ki (hCA II; Table 1) | Ki (hCA I; [9]) | Ki (hCA XII) | Ki (hCA IX; [10]) | Ki (hCA II; Table 2) | other results |
| --- | --- | --- | --- | --- | --- | --- | --- | --- |
| NS(=O)(=O)c1ccc(CCNC(=S)Nc2ccc(-c3c4ccc(=O)cc-4oc4cc(O)ccc34)c(C(=O)O)c2)cc1 [5c, (4-Sulfamoylphenylethyl)thioureido fluorescein] | – | – | – | – | – | – | – | fluorescence signal (binding to cells) (MDCK-CA IX cells): detected only in the hypoxic MDCK-CA IX cells; Ki (hCA I; KI hCA I, Table 1, human cloned isozyme): 1300 nM; binding to SiHa cells [2]: binds to hypoxic HeLa and SiHa cells; acidosis (pHe) of hypoxic SiHa cells [3]: reduced; binding to HeLa cells [4]: binds to hypoxic HeLa and SiHa cells; acidosis (pHe) of hypoxic HeLa cells [5]: reduced; [sulfonamide] in red blood cells, t = 30 min, HPLC (human red cells [1]): 0.4 µM; [sulfonamide] in red blood cells, t = 30 min, ES (human red cells [1]): 0.9 µM; [sulfonamide] in red blood cells, t = 60 min, HPLC (human red cells [1]): 0.6 µM; [sulfonamide] in red blood cells, t = 60 min, ES (human red cells [1]): 1.2 µM; [sulfonamide] in red blood cells, t = 48 h, HPLC (human red cells [1]): 10.4 µM; [sulfonamide] in red blood cells, t = 48 h, ES (human red cells [1]): 3.0 µM; membrane permeability at exposure times of 30-60 min (human red cells [1]): decreased membrane permeability; membrane permeability after 48 hours of exposure (human red cells [1]): slightly more permeant |
| CC(=O)/N=c1/sc(S(N)(=O)=O)nn1C [MZA, methazolamide, reference compound] | – | – | – | – | – | – | – | penetration through red blood cell membranes (human red cells [6]): easily penetrate through biological membranes; [sulfonamide] in red blood cells, t = 30 min, HPLC (human red cells [1]): 170 µM; [sulfonamide] in red blood cells, t = 30 min, ES (human red cells [1]): 169 µM; [sulfonamide] in red blood cells, t = 60 min, HPLC (human red cells [1]): 168 µM; [sulfonamide] in red blood cells, t = 60 min, ES (human red cells [1]): 168 µM; [sulfonamide] in red blood cells, t = 48 h, HPLC (human red cells [1]): 167 µM; [sulfonamide] in red blood cells, t = 48 h, ES (human red cells [1]): 169 µM |
| NS(=O)(=O)c1ccc(NC(=O)Nc2ccc(-c3c4ccc(=O)cc-4oc4cc(O)ccc34)c(C(=O)O)c2)cc1 [compound 1, (4-Sulfamoylphenyl)ureido fluorescein] | – | – | – | 1700 nM | 11 nM | 21 nM | 36 nM | – |
| NS(=O)(=O)c1cccc(NC(=O)Nc2ccc(-c3c4ccc(=O)cc-4oc4cc(O)ccc34)c(C(=O)O)c2)c1 [compound 2, (3-Sulfamoylphenyl)ureido fluorescein] | – | – | – | 1800 nM | 9 nM | 30 nM | 43 nM | – |
| NS(=O)(=O)c1ccccc1NC(=O)Nc1ccc(-c2c3ccc(=O)cc-3oc3cc(O)ccc23)c(C(=O)O)c1 [compound 3, (2-Sulfamoylphenyl)ureido fluorescein] | – | – | – | 1900 nM | 18 nM | 46 nM | 76 nM | – |
| NS(=O)(=O)c1ccc(CNC(=O)Nc2ccc(-c3c4ccc(=O)cc-4oc4cc(O)ccc34)c(C(=O)O)c2)cc1 [compound 4, (4-Sulfamoylphenylmethyl)ureido fluorescein] | – | – | – | 1560 nM | 8 nM | 21 nM | 40 nM | – |
| NS(=O)(=O)c1ccc(CCNC(=O)Nc2ccc(-c3c4ccc(=O)cc-4oc4cc(O)ccc34)c(C(=O)O)c2)cc1 [compound 5, (4-Sulfamoylphenylethyl)ureido fluorescein] | – | – | – | 1340 nM | 7 nM | – | 35 nM | – |
| NS(=O)(=O)c1ccc(NC(=O)Nc2ccc(-c3c4ccc(=O)cc-4oc4cc(O)ccc34)c(C(=O)O)c2)c(F)c1 [compound 6, (2-Fluoro-4-sulfamoylphenyl)ureido fluorescein] | – | – | – | 1200 nM | 10 nM | 21 nM | 40 nM | – |
| NS(=O)(=O)c1ccc(NC(=O)Nc2ccc(-c3c4ccc(=O)cc-4oc4cc(O)ccc34)c(C(=O)O)c2)c(Cl)c1 [compound 7] | – | – | – | 1330 nM | 12 nM | 22 nM | 43 nM | – |
| NS(=O)(=O)c1ccc(NC(=O)Nc2ccc(-c3c4ccc(=O)cc-4oc4cc(O)ccc34)c(C(=O)O)c2)c(I)c1 [compound 9, (2-Iodo-4-sulfamoylphenyl)ureido fluorescein] | – | – | – | 1350 nM | 7 nM | 21 nM | 43 nM | – |
| NS(=O)(=O)c1ccc(CNS(=O)(=O)c2ccc(NC(=O)Nc3ccc(-c4c5ccc(=O)cc-5oc5cc(O)ccc45)c(C(=O)O)c3)cc2)cc1 [compound 10, [4-(4-Sulfamoyl-benzylsulfamoyl)-phenyl]-ureido fluorescein] | – | – | – | 520 nM | 5 nM | 7 nM | 14 nM | – |
| NS(=O)(=O)c1nnc(NS(=O)(=O)c2ccc(NC(=O)Nc3ccc(-c4c5ccc(=O)cc-5oc5cc(O)ccc45)c(C(=O)O)c3)cc2)s1 [compound 11, [4-(5-Sulfamoyl-[1,3,4]thiadiazol-2-ylsulfamoyl)-phenyl]-ureido fluorescein] | – | – | – | 410 nM | 3 nM | 6 nM | 13 nM | – |

From US20080138291A1, “Sulfonamide Derivatives Having Carbonic Anhydrase Inhibiting Activity and their Use as Therapeutic and Diagnostic Agents” (UNION LIFE SCIENCES LTD., priority 2005, published 2008)
